From patent publication US20250027085A1, “COMPOSITIONS AND METHODS FOR TREATING ALZHEIMER'S DISEASE UTILIZING A TRANSCRIPTIONAL MASTER REGULATOR OF THE RETROMER COMPLEX” (THE TRUSTEES OF COLUMBIA UNIVERSITY IN THE CITY OF NEW YORK, priority 2022, published 2025)

System: CHOP
Assay: CHOP quantitative immunofluorescence in soma after axonal Aβ1-42/Aβ42
Type: cell-based, rat
Conditions: axonal treatment; Aβ oligomers 36 hours, nelfinavir in the last 24 hours
Description: Hippocampi were dissected from embryonic day (E) 16-18 rat embryos obtained from pregnant Sprague-Dawley dams (Envigo). All animal procedures were approved by the Institutional Animal Care and Use Committee at Columbia University. Cell dissociation was performed using TripLE Express. Neurons (50,000-60,000 per microfluidic chamber) were plated on 0.1 mg ml^-1 poly-D-lysine (Millipore Sigma) and 2 μg ml^-1 laminin (Bio-Techne) coated substrates and grown in Neurobasal supplemented with 10% fetal bovine serum, 2 mM L-glutamine, 1 mM sodium pyruvate, and antibiotics (50 U ml^-1 penicillin-streptomycin). Tripartite microfluidic chambers were produced with Dow Corning Sylgard 184 Silicone Encapsulant Clear Kit (10:1 mix ratio; Ellsworth Adhesives) cured at […] for at least 4 hours following published protocols (Park et al. 2006; Desai et al. 2009). Chamber design incorporated two sets of 200-μm-long microgroove barriers to exclude crossing of cell bodies and dendrites (Taylor et al. 2005; […] et al. 2009). After 24 hours, medium was changed to Neurobasal containing 1×B27 and 2 mM L-glutamine. Subsequent medium changes (half volumes) were performed at DIV4 and thereafter every 3-5 days. […] Mean pixel intensity values were computed after background fluorescence subtraction.

Cc1c(O)cccc1C(=O)N[C@@H](CSc1ccccc1)[C@H](O)CN1C[C@H]2CCCC[C@H]2C[C@H]1C(=O)NC(C)(C)C [nelfinavir]
downstream induction of CHOP expression in the soma: abolished
